The results in this text go back to US10894808B2, “Polypeptide ligands specific for plasma kallikrein” (BicycleRD Limited, priority 2013, dated 2021).

The term Ki denotes a measure of affinity in units of concentration, obtained from inhibition or displacement. As a reminder, the clearance is a measure of how efficiently the substance is removed, as volume per time.

*1 amine or outer side, *2 acyl side, *3 side chain or, on linkers, in order; H or OH if unused. Where a SMILES comes first, the peptide text is derived from it. Bridges are numbered along the chain shown (N, C = ends). [ ]: non-standard residue; d: D form. TBMB = c1c(C[*:1])cc(C[*:3])cc1C[*:2]; Sar = CNCC(=O)O

Data set [1] deals with rabbit kallikrein (Oryctolagus cuniculus, UniProt G1T127). The experiment in a line: Functional enzyme assay, inhibition of rabbit kallikrein. It is filed as biochemical. In a few lines:
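Buffer 10 mM Tris HCl, 150 mM NaCl, 10 mM MgCl2, 1 mM CaCl2, 1 mg/mL BSA, pH 7.4, 25° C. AMC release read at ex 360/em 460 nm; linear-phase rate (typically 5–45 min) fitted by four-parameter non-linear regression for IC50, with Ki also derived.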

Data set [2] has as its system carrageenan-induced paw oedema. In words: Carrageenan-induced paw oedema in rat. The note with it: peptides 15 mg/kg ip, indomethacin 5 mg/kg ip, paw volume at 1, 2, 4, 6 h, p<0.001. Format: in vivo. The method, then:
In this analysis, peptide Ac-(06-259-02)-Sar3-(D-Arg)2 (referred to in this study as Bicycle 3; see Example 2 herein) was assessed comparatively against the peptide Ac-(06-34-18) Phe2 Aze3 Tyr4 HArg5 Ala(ψCH2NH)6 (referred to in this study as Bicycle 2 and which is disclosed in Table 26b and FIG. 22 of PCT/EP2014/057440). Inflammation was induced in male Sprague-Dawley rats (n=10 per group) by injection of 100 μL of 1% carrageenan solution in the subplantar region of the right hind paw. Animals received treatment with the peptides and indomethacin according to Table 10:
At 1, 2, 4 and 6 hours after carrageenan administration, paw volume was measured by water displacement method. Statistical analysis was conducted using 2-way ANOVA with repeated measures (GraphPad Prism).
(In the carrageenan paw model, swelling and tenderness develop within hours.)

Data set [3] can be described thus: Intravenous pharmacokinetics in rat. It is filed as in vivo. The method, then:
Peptides used for the pharmacokinetic studies in Example 4 were lyophilised from 10 mM HCl in water 3 times to afford the hydrochloride salts of the compounds. Solutions were dosed by intravenous bolus at 1 mg/mL in 50 mM Hepes pH 7.0, 5% glycerol, 1.9% DMSO for two compounds (Ac-(06-550) Aze3 HArg5 Sar3-(D-Arg2)) and (06-259-02)-Sar3-(D-Arg2)) at 5 mg/kg in Spraguely Dawely rats. Serial blood samples (˜0.2 mL) were taken into EDTA tubes at the indicated time points, and plasma was separated by centrifugation, and frozen at −20 C for analysis. Employing standard bioanalytical techniques, plasma samples were then analysed and quantified for parent remaining compound using a Waters, Xevo TQS LC-MS. PK parameters were determined using the software package PK Solutions 2.0 from Summit Research Services.
Peptides Ac-(06-550)-Sar3-(D-Arg)2Aze3 HArg5 (which contains the stabilising and affinity enhancing modifications Aze3 and HArg5, and a solubilising C-terminal extension Sar3-(D-Arg)2) (SEQ ID NO: 98) and Ac-(06-259-02)-Sar3-(D-Arg)2 were selected for pharmacokinetic assessment in rat. Peptides were injected intravenously in buffered solution at 1 mg/mL at 5 mg/kg Sprague Dawley rats, and blood was sampled and analysed for peptide concentrations at a number of time points post injection.

Chain of rabbit kallikrein (G1T127 20-629): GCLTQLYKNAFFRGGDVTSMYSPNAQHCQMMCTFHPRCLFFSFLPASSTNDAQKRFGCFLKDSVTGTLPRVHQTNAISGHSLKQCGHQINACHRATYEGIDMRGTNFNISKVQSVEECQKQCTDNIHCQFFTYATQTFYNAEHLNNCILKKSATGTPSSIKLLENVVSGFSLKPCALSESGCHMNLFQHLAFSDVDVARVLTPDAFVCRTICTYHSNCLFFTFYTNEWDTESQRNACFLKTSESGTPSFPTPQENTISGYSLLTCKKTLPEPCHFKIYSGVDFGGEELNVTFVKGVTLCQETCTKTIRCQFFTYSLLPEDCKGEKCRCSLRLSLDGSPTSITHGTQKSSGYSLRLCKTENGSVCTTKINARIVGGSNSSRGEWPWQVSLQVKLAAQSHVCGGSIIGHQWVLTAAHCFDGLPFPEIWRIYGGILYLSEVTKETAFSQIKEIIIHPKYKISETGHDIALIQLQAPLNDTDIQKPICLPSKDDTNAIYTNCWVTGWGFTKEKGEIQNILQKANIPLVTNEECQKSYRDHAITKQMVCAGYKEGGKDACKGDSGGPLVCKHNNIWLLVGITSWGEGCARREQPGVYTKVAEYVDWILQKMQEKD

For the compound `CC(=O)N[C@H]1CSCc2cc3cc(c2)CSC[C@H](NC(=O)[C@H](Cc2c[nH]c4ccccc24)NC(=O)[C@@H]2CCCN2C(=O)[C@H](CC(N)=O)NC(=O)[C@H](Cc2c[nH]c4ccccc24)NC(=O)[C@H]([C@@H](C)O)NC(=O)[C@H](CC(N)=O)NC1=O)C(=O)N1CCC[C@H]1C(=O)N[C@@H](Cc1c[nH]c2ccccc12)C(=O)N[C@@H](CC(=O)O)C(=O)N[C@@H](C)C(=O)N1CCC[C@H]1C(=O)N[C@@H](CC(C)C)C(=O)N[C@H](C(=O)N[C@@H](C)C(=O)N(C)CC(=O)N(C)CC(=O)N(C)CC(=O)N[C@H](CCCNC(=N)N)C(=O)N[C@H](CCCNC(=N)N)C(N)=O)CSC3` [Ac-(06-259-02)-Sar3-(DArg2)] (Ac-CNTWNPWCPWDAPLCA[Sar][Sar][Sar][dR][dR]-NH2; linker 1-8-15 via TBMB), in data set [1], the Ki worked out at 1450 nM. In data set [2], the “effect on paw swelling induced by carrageenan” value is “inhibited the paw swelling induced by carrageenan at all timepoints”. Further, the “stability in the rat circulation” value in data set [3] (FIG. 4, rat, iv, in words) is reported as “marked stability in the rat circulation”. This compound also gave a clearance in data set [3] (in vivo, Table 8, Sprague Dawley rat, iv 5 mg/kg) of 7.2 mL/min/kg. Moreover, in data set [3] (in vivo, Table 8, Sprague Dawley rat, iv 5 mg/kg, read-out: Vss), the Vd is 0.8 L/kg. The half-life in data set [3] (in vivo, Table 8, Sprague Dawley rat, iv 5 mg/kg, read-out: t1/2 elimination) came to 1.3 h.
